Laboratory results as given in patent publication US20130023485A1, “PARENTERAL FORMULATIONS OF PEPTIDES FOR THE TREATMENT OF SYSTEMATIC LUPUS ERYTHEMATOSUS” (Teva Pharmaceutical Industries, Ltd., priority 2003, published 2013).
Read-outs that look alike come from different tables or passages of the source.

What was measured:
LN cells [1] = assay: IFN-γ secretion by cultured LN cells of immunized and treated mice (ELISA); type: in vivo, BALB/c mice
Method: A group of 20 mice were immunized with 50 μg/mouse of Compound 1 RS. The immunized mice were allocated to five treatment groups as follows: placebo, 25, 50, 100 and 200 μg/mouse of Compound 1 DP (subcutaneous administration). Ten days post immunization and treatment, LN was extracted and single cell suspension was prepared. The in-vitro secretion of IFN-γ and TGF-β by the cultured cells in response to activation with several concentrations of Compound 1 RS was then measured. [table] [table] Mice: 20 female BALB/c mice, supplied by Harlan animals breeding center, Rehovot. Age at immunization (week+days): 10 Average weight of mice included in the experiment: 19.01 gr. The immunization was performed by injecting 100 microliters of the immunization emulsion (50 microliters into each hind footpad). […] Mice were sacrificed by cervical dislocation. LN were extracted from the hind legs and were transferred to a sterile petri dish containing about 5 mL RPMI. The cells were extracted by gentle squeezing of the tissue against a 200 micrometer mesh stainless steel net. The cells were collected and centrifuged at 300 G for 10 minutes at RT. Single cell suspensions were prepared from pooled LN of each experimental group. […] Secretion of IFN-γ and TGF-β, as indication of cellular response, were determined by ELISA of culture media (48 hrs for IFN-γ and 72 hrs for TGF-β).

LN cells [2] = assay: TGF-β secretion by cultured LN cells of immunized and treated mice (ELISA); type: in vivo, BALB/c mice; details: all Compound 1 treatment groups (25-200 μg/mouse)
Method: A group of 20 mice were immunized with 50 μg/mouse of Compound 1 RS. The immunized mice were allocated to five treatment groups as follows: placebo, 25, 50, 100 and 200 μg/mouse of Compound 1 DP (subcutaneous administration). Ten days post immunization and treatment, LN was extracted and single cell suspension was prepared. The in-vitro secretion of IFN-γ and TGF-β by the cultured cells in response to activation with several concentrations of Compound 1 RS was then measured. [table] […] Secretion of IFN-γ and TGF-β, as indication of cellular response, were determined by ELISA of culture media (48 hrs for IFN-γ and 72 hrs for TGF-β).

[3] = tested on: PBL of SLE patients stimulated with human 16/6Id mAb; type: cell-based; details: for inhibition of proliferative responses to human 16/6Id mAb: PBL of one SLE patient
Method: Cells were then harvested and radioactivity was counted using a β-counter. Results were expressed as mean counts per minute (cpm) of triplicate cultures. Stimulation indices (the ratio of mean cpm at the optimal concentration of 16/6Id to mean cpm without 16/6Id) were then calculated. A stimulation index (SI)≧2 was considered positive. […] Inhibition of above 50% of the proliferative capacity was considered positive. The Table represents the highest positive inhibition capacity for each peptide. […] Both peptides inhibited the proliferation of PBL of 18/19(95%) of responders tested. It can also be seen in the Table that the magnitudes of inhibitions were similar for both peptides. Thus, it can be concluded that peptides based on CDR1 and CDR3 of the human 16/6Id mAb are efficient inhibitors of the proliferation of PBL of SLE patients to the human 16/6Id mAb.

[4] = tested on: TGF-β secretion by PBL of SLE patients; assay: Up-regulation of TGF-β secretion by PBL stimulated with human 16/6Id mAb (ELISA); type: cell-based
Method: For this purpose, supernatants were removed from cultures of PBL of various SLE patients following 48 hours incubation with the human 16/6Id mAb in the absence or presence of the peptides hCDR1 or hCDR3. TGF-β was determined by ELISA according to the manufacturer's instructions. Briefly, Maxisorb plates (Nunc) were coated with recombinant human TGFβsRII/Fc chimera (R & D Systems) diluted in PBS (100 ng/ml). After blocking, cell supernatants were added. After 18 hours incubation the detecting biotinylated anti-human TGF-β antibody (R & D Systems) was added. The substrate solution used was the TMB Colour Reagent (Helix Diagnostics) and enzyme activity was evaluated by the MRX ELISA reader using the 570 nm and 630 nm filters.

[5] = Mouse toxicity study of formulation; type: in vivo; details: 30% (w/w) PEG 400 formulation
From the text: Thus, it was decided not to further pursue this formulation. In view of the preliminary experiments non-aqueous solvents were not used in the subject formulations.

[6] = tested on: Balb/c mice and (NZB×NZW)F1 mice; details: cited from earlier work

## H-GYYWSWIRQPPGKGEEWIG-OH [Compound 1]
LN cells [1]; treated 25 μg/M s.c., 5 million cells/well, activation Compound 1 3.125 μg/ml
  Final cytokine (IFN-γ): BQL
LN cells [1]; treated 25 μg/M s.c., 5 million cells/well, activation Compound 1 6.25 μg/ml
  Final cytokine (IFN-γ): BQL
LN cells [1]; treated 25 μg/M s.c., 5 million cells/well, activation Compound 1 12.5 μg/ml
  Final cytokine (IFN-γ): 41.9 pg/mL
LN cells [1]; treated 25 μg/M s.c., 5 million cells/well, activation Compound 1 50 μg/ml
  Final cytokine (IFN-γ): 104.2 pg/mL
LN cells [1]; treated 25 μg/M s.c., 5 million cells/well, activation Compound 1 100 μg/ml
  Final cytokine (IFN-γ): 185.2 pg/mL
LN cells [1]; treated 25 μg/M s.c., 5 million cells/well, activation Compound 1 25 μ/ml
  Final cytokine (IFN-γ): 70.0 pg/mL
LN cells [1]; treated 25 μg/M s.c., 5 million cells/well, activation Con A
  Final cytokine (IFN-γ): 2995.3 pg/mL
LN cells [1]; treated 50 μg/M s.c., 2.5 million cells/well, activation Compound 1 3.125 μg/ml
  Final cytokine (IFN-γ): 54.1 pg/mL
LN cells [1]; treated 50 μg/M s.c., 2.5 million cells/well, activation Compound 1 6.25 μg/ml
  Final cytokine (IFN-γ): 81.8 pg/mL
LN cells [1]; treated 50 μg/M s.c., 2.5 million cells/well, activation Compound 1 12.5 μg/ml
  Final cytokine (IFN-γ): 123.1 pg/mL
LN cells [1]; treated 50 μg/M s.c., 2.5 million cells/well, activation Compound 1 50 μg/ml
  Final cytokine (IFN-γ): 292.5 pg/mL
LN cells [1]; treated 50 μg/M s.c., 2.5 million cells/well, activation Compound 1 100 μg/ml
  Final cytokine (IFN-γ): 531.8 pg/mL
LN cells [1]; treated 50 μg/M s.c., 2.5 million cells/well, activation Compound 1 25 μ/ml
  Final cytokine (IFN-γ): 215.1 pg/mL
LN cells [1]; treated 50 μg/M s.c., 2.5 million cells/well, activation Con A
  Final cytokine (IFN-γ): 356.2 pg/mL
LN cells [1]; treated 50 μg/M s.c., 5 million cells/well, activation Compound 1 3.125 μg/ml
  Final cytokine (IFN-γ): 76.2 pg/mL
LN cells [1]; treated 50 μg/M s.c., 5 million cells/well, activation Compound 1 6.25 μg/ml
  Final cytokine (IFN-γ): 109.2 pg/mL
LN cells [1]; treated 50 μg/M s.c., 5 million cells/well, activation Compound 1 12.5 μg/ml
  Final cytokine (IFN-γ): 179.5 pg/mL
LN cells [1]; treated 50 μg/M s.c., 5 million cells/well, activation Compound 1 50 μg/ml
  Final cytokine (IFN-γ): 373.4 pg/mL
LN cells [1]; treated 50 μg/M s.c., 5 million cells/well, activation Compound 1 100 μg/ml
  Final cytokine (IFN-γ): 547.0 pg/mL
LN cells [1]; treated 50 μg/M s.c., 5 million cells/well, activation Compound 1 25 μ/ml
  Final cytokine (IFN-γ): 277.9 pg/mL
LN cells [1]; treated 50 μg/M s.c., 5 million cells/well, activation Con A
  Final cytokine (IFN-γ): 4837.0 pg/mL
LN cells [1]; treated 100 μg/M s.c., 2.5 million cells/well, activation Compound 1 3.125 μg/ml
  Final cytokine (IFN-γ): 64.5 pg/mL
LN cells [1]; treated 100 μg/M s.c., 2.5 million cells/well, activation Compound 1 6.25 μg/ml
  Final cytokine (IFN-γ): 116.1 pg/mL
LN cells [1]; treated 100 μg/M s.c., 2.5 million cells/well, activation Compound 1 12.5 μg/ml
  Final cytokine (IFN-γ): 180.9 pg/mL
LN cells [1]; treated 100 μg/M s.c., 2.5 million cells/well, activation Compound 1 50 μg/ml
  Final cytokine (IFN-γ): 518.3 pg/mL
LN cells [1]; treated 100 μg/M s.c., 2.5 million cells/well, activation Compound 1 100 μg/ml
  Final cytokine (IFN-γ): 582.7 pg/mL
LN cells [1]; treated 100 μg/M s.c., 2.5 million cells/well, activation Compound 1 25 μ/ml
  Final cytokine (IFN-γ): 262.8 pg/mL
LN cells [1]; treated 100 μg/M s.c., 2.5 million cells/well, activation Con A
  Final cytokine (IFN-γ): 337.4 pg/mL
LN cells [1]; treated 100 μg/M s.c., 5 million cells/well, activation Compound 1 3.125 μg/ml
  Final cytokine (IFN-γ): 90.8 pg/mL
LN cells [1]; treated 100 μg/M s.c., 5 million cells/well, activation Compound 1 6.25 μg/ml
  Final cytokine (IFN-γ): 157.8 pg/mL
LN cells [1]; treated 100 μg/M s.c., 5 million cells/well, activation Compound 1 12.5 μg/ml
  Final cytokine (IFN-γ): 257.1 pg/mL
LN cells [1]; treated 100 μg/M s.c., 5 million cells/well, activation Compound 1 50 μg/ml
  Final cytokine (IFN-γ): 739.7 pg/mL
LN cells [1]; treated 100 μg/M s.c., 5 million cells/well, activation Compound 1 100 μg/ml
  Final cytokine (IFN-γ): 995.5 pg/mL
LN cells [1]; treated 100 μg/M s.c., 5 million cells/well, activation Compound 1 25 μ/ml
  Final cytokine (IFN-γ): 421.7 pg/mL
LN cells [1]; treated 100 μg/M s.c., 5 million cells/well, activation Con A
  Final cytokine (IFN-γ): 10126.8 pg/mL
LN cells [1]; treated 200 μg/M s.c., 2.5 million cells/well, activation Compound 1 3.125 μg/ml
  Final cytokine (IFN-γ): 103.9 pg/mL
LN cells [1]; treated 200 μg/M s.c., 2.5 million cells/well, activation Compound 1 6.25 μg/ml
  Final cytokine (IFN-γ): 126.1 pg/mL
LN cells [1]; treated 200 μg/M s.c., 2.5 million cells/well, activation Compound 1 12.5 μg/ml
  Final cytokine (IFN-γ): 129.0 pg/mL
LN cells [1]; treated 200 μg/M s.c., 2.5 million cells/well, activation Compound 1 50 μg/ml
  Final cytokine (IFN-γ): 378.1 pg/mL
LN cells [1]; treated 200 μg/M s.c., 2.5 million cells/well, activation Compound 1 100 μg/ml
  Final cytokine (IFN-γ): 524.1 pg/mL
LN cells [1]; treated 200 μg/M s.c., 2.5 million cells/well, activation Compound 1 25 μ/ml
  Final cytokine (IFN-γ): 240.3 pg/mL
LN cells [1]; treated 200 μg/M s.c., 2.5 million cells/well, activation Con A
  Final cytokine (IFN-γ): BQL
LN cells [1]; treated 200 μg/M s.c., 5 million cells/well, activation Compound 1 3.125 μg/ml
  Final cytokine (IFN-γ): 204.4 pg/mL
LN cells [1]; treated 200 μg/M s.c., 5 million cells/well, activation Compound 1 6.25 μg/ml
  Final cytokine (IFN-γ): 244.1 pg/mL
LN cells [1]; treated 200 μg/M s.c., 5 million cells/well, activation Compound 1 12.5 μg/ml
  Final cytokine (IFN-γ): 466.1 pg/mL
LN cells [1]; treated 200 μg/M s.c., 5 million cells/well, activation Compound 1 50 μg/ml
  Final cytokine (IFN-γ): 922.5 pg/mL
LN cells [1]; treated 200 μg/M s.c., 5 million cells/well, activation Compound 1 100 μg/ml
  Final cytokine (IFN-γ): 1006.2 pg/mL
LN cells [1]; treated 200 μg/M s.c., 5 million cells/well, activation Compound 1 25 μ/ml
  Final cytokine (IFN-γ): 660.5 pg/mL
LN cells [1]; treated 200 μg/M s.c., 5 million cells/well, activation Con A
  Final cytokine (IFN-γ): 7722.8 pg/mL
LN cells [1]; treated dose of 25 μg/mouse
  average inhibition of IFN-γ secretion: 95%
LN cells [2]
  TGF-β secreted level: below the detection limit
[3]
  Percent Inhibition of proliferation, Mean ± SD: 68.12 ± 9.57%
[3]; FIG. 10
  inhibition of proliferative responses to human 16/6Id mAb: inhibited efficiently
[3]; FIG. 11
  inhibition of proliferative responses to human 16/6Id mAb: did inhibit efficiently
[3]; of the 19 responders tested
  responders whose PBL proliferation was inhibited (above 50%): 84.2%
[4]; PBL of SLE patients, 48 hours
  Up-Regulation of TGF-β % (patients): 100 (19/19) %
[4]; PBL of one representative SLE patient, FIG. 13
  secretion of TGF-β: significant up-regulation
[4]; percent secretion above that in the presence of 16/6 Id alone (= 100%)
  Maximum Up-regulation %: 305 ± 221%
[5]
  adverse effects: may have been the cause of some adverse effects
[6]
  16/6 Id specific antibody response: no effect
  SLE related findings (immune complex deposits in the kidney, proteinuria, leukopenia): significantly reduced
